# Results: PubChem BioAssay (NCI)
#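 Step 1: Grow cells in 96-well plates. Step 2: Expose to compound for 48 hours at 5 concentrations. Step 3: Interpolate endpoints linearly; if unreached, use highest concentration. The concentration for full growth arrest is given as TGI.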
# Key:
# Assay in all cases: growth of human tumour cells (NCI), 48 h
# SK-MEL-28 melanoma = system: SK-MEL-28 melanoma
# MDA-N = system: MDA-N
# A549 NSCLC = system: A549 NSCLC
# KM12 colon = system: KM12 colon
# SF-295 CNS = system: SF-295 CNS
# SW-620 colon = system: SW-620 colon
# HCT-116 colon = system: HCT-116 colon
# OVCAR-5 ovarian = system: OVCAR-5 ovarian
# RPMI-8226 leukemia = system: RPMI-8226 leukemia
# DU-145 prostate = system: DU-145 prostate
# ACHN renal = system: ACHN renal
# MDA-MB-231 breast = system: MDA-MB-231 breast
# M14 melanoma = system: M14 melanoma
# CCRF-CEM leukemia = system: CCRF-CEM leukemia
# SNB-19 CNS = system: SNB-19 CNS
# U251 CNS = system: U251 CNS
# HT29 colon = system: HT29 colon
# TK-10 renal = system: TK-10 renal
# A498 renal = system: A498 renal
# CAKI-1 renal = system: CAKI-1 renal
# UO-31 renal = system: UO-31 renal
# UACC-257 melanoma = system: UACC-257 melanoma
# IGROV1 ovarian = system: IGROV1 ovarian
# RXF 393 renal = system: RXF 393 renal
# HCT-15 colon = system: HCT-15 colon
# OVCAR-4 ovarian = system: OVCAR-4 ovarian
# 786-0 renal = system: 786-0 renal
# NCI-H460 lung = system: NCI-H460 lung
# PC-3 prostate = system: PC-3 prostate
# UACC-62 melanoma = system: UACC-62 melanoma
# SF-268 CNS = system: SF-268 CNS
# HS 578T breast = system: HS 578T breast
# SK-MEL-2 melanoma = system: SK-MEL-2 melanoma
# NCI-H522 lung = system: NCI-H522 lung
# COLO 205 colon = system: COLO 205 colon
# OVCAR-3 ovarian = system: OVCAR-3 ovarian
# HL-60(TB) leukemia = system: HL-60(TB) leukemia
# EKVX NSCLC = system: EKVX NSCLC
# BT-549 breast = system: BT-549 breast
# SK-OV-3 ovarian = system: SK-OV-3 ovarian
# OVCAR-8 ovarian = system: OVCAR-8 ovarian
# NCI-H23 lung = system: NCI-H23 lung
# SN12C renal = system: SN12C renal
# HOP-62 NSCLC = system: HOP-62 NSCLC
# NCI-H226 lung = system: NCI-H226 lung
# SK-MEL-5 melanoma = system: SK-MEL-5 melanoma
# MDA-MB-435 = system: MDA-MB-435
# LOX IMVI melanoma = system: LOX IMVI melanoma
# SNB-75 CNS = system: SNB-75 CNS
# MOLT-4 leukemia = system: MOLT-4 leukemia
# NCI/ADR-RES ovarian = system: NCI/ADR-RES ovarian
# HOP-92 NSCLC = system: HOP-92 NSCLC
# K-562 leukemia = system: K-562 leukemia
smiles,measurement,setting,value
O=c1[nH]c2c(c(=O)[nH]1)C(c1ccc([N+](=O)[O-])cc1)c1c([nH]c(=O)[nH]c1=O)O2,TGI,SK-MEL-28 melanoma,> 100 µM
same,TGI,MDA-N,> 100 µM
same,TGI,A549 NSCLC,> 100 µM
same,TGI,KM12 colon,> 100 µM
same,TGI,SF-295 CNS,> 100 µM
same,TGI,SW-620 colon,> 100 µM
same,TGI,HCT-116 colon,> 100 µM
same,TGI,OVCAR-5 ovarian,> 100 µM
same,TGI,RPMI-8226 leukemia,75 µM
same,TGI,DU-145 prostate,> 100 µM
same,TGI,ACHN renal,> 100 µM
same,TGI,MDA-MB-231 breast,> 100 µM
same,TGI,M14 melanoma,> 100 µM
same,TGI,CCRF-CEM leukemia,90.5 µM
same,TGI,SNB-19 CNS,> 100 µM
same,TGI,U251 CNS,> 100 µM
same,TGI,HT29 colon,> 100 µM
same,TGI,TK-10 renal,> 100 µM
same,TGI,A498 renal,> 100 µM
same,TGI,CAKI-1 renal,> 100 µM
same,TGI,UO-31 renal,> 100 µM
same,TGI,UACC-257 melanoma,> 100 µM
same,TGI,IGROV1 ovarian,> 100 µM
same,TGI,RXF 393 renal,> 100 µM
same,TGI,HCT-15 colon,> 100 µM
same,TGI,OVCAR-4 ovarian,> 100 µM
same,TGI,786-0 renal,> 100 µM
same,TGI,NCI-H460 lung,> 100 µM
same,TGI,PC-3 prostate,> 100 µM
same,TGI,UACC-62 melanoma,> 100 µM
same,TGI,SF-268 CNS,> 100 µM
same,TGI,HS 578T breast,> 100 µM
same,TGI,SK-MEL-2 melanoma,> 100 µM
same,TGI,NCI-H522 lung,82.9 µM
same,TGI,COLO 205 colon,> 100 µM
same,TGI,OVCAR-3 ovarian,> 100 µM
same,TGI,HL-60(TB) leukemia,> 100 µM
same,TGI,EKVX NSCLC,> 100 µM
same,TGI,BT-549 breast,> 100 µM
same,TGI,SK-OV-3 ovarian,> 100 µM
same,TGI,OVCAR-8 ovarian,> 100 µM
same,TGI,NCI-H23 lung,> 100 µM
same,TGI,SN12C renal,> 100 µM
same,TGI,HOP-62 NSCLC,> 100 µM
same,TGI,NCI-H226 lung,> 100 µM
same,TGI,SK-MEL-5 melanoma,> 100 µM
same,TGI,MDA-MB-435,> 100 µM
CC(=Nc1ccc(Cl)c(Cl)c1)c1ccncc1,TGI,SK-MEL-28 melanoma,> 100 µM
same,TGI,MDA-N,> 100 µM
same,TGI,LOX IMVI melanoma,> 100 µM
same,TGI,KM12 colon,> 100 µM
same,TGI,SF-295 CNS,> 100 µM
same,TGI,SW-620 colon,> 100 µM
same,TGI,HCT-116 colon,> 100 µM
same,TGI,MDA-MB-231 breast,> 100 µM
same,TGI,M14 melanoma,> 100 µM
same,TGI,CCRF-CEM leukemia,> 100 µM
same,TGI,SNB-19 CNS,> 100 µM
same,TGI,SNB-75 CNS,> 100 µM
same,TGI,U251 CNS,> 100 µM
same,TGI,HT29 colon,> 100 µM
same,TGI,TK-10 renal,> 100 µM
same,TGI,RXF 393 renal,> 100 µM
same,TGI,OVCAR-4 ovarian,> 100 µM
same,TGI,786-0 renal,> 100 µM
same,TGI,NCI-H460 lung,> 100 µM
same,TGI,MOLT-4 leukemia,> 100 µM
same,TGI,PC-3 prostate,> 100 µM
same,TGI,UACC-62 melanoma,> 100 µM
same,TGI,SF-268 CNS,> 100 µM
same,TGI,HS 578T breast,> 100 µM
same,TGI,NCI-H522 lung,> 100 µM
same,TGI,NCI/ADR-RES ovarian,> 100 µM
same,TGI,COLO 205 colon,> 100 µM
same,TGI,OVCAR-3 ovarian,> 100 µM
same,TGI,HOP-92 NSCLC,> 100 µM
same,TGI,K-562 leukemia,> 100 µM
same,TGI,BT-549 breast,> 100 µM
same,TGI,SK-OV-3 ovarian,> 100 µM
same,TGI,OVCAR-8 ovarian,> 100 µM
same,TGI,NCI-H23 lung,> 100 µM
same,TGI,SN12C renal,> 100 µM
same,TGI,HOP-62 NSCLC,> 100 µM
same,TGI,NCI-H226 lung,> 100 µM
